Earlier results, collected in patent US20170252373A1, “COMBINATION THERAPY FOR THE TREATMENT OF HAIR LOSS” (priority 2016, published 2017).

Test system: male-pattern hair loss
Settings: within three months of starting treatment; also at 24 and 48 months with continued use

CC(C)(C)NC(=O)[C@H]1CC[C@H]2[C@@H]3CC[C@H]4NC(=O)C=C[C@]4(C)[C@H]3CC[C@]12C [finasteride]
hair on the scalp: Increased hair on the scalp
